Reference: patent publication US20140315850A1, “2',3'-Dideoxy-2'-alpha-Fluoro-2'-beta-C-Methylnucleosides and Prodrugs Thereof” (Nanjing Molecular Research, Inc., priority 2011, published 2014)

Assays:
[1] = test system: HCV subgenomic genotype 1b replicon; assay: cell-based HCV replicon assay (luciferase reporter); design: species or system hepatitis C virus (HCV); settings: for EC50: Hepatitis C virus, Huh-7 cells, genotype 1b replicon luc-ubi-neo, 48 h incubation, luciferase activity, read-out: EC50 (concentration of drug inhibiting HCV by 50%); for anti-HCV activity (in words): replicon assay, genotype 1b
Description: (§1) The anti-HCV activity and cytotoxicity of compounds disclosed herein were evaluated following patent method (WO/2007/027248).
(§2) The anti-HCV activity and toxicity of the exemplary compounds can be tested in two biological assays—a cell-based HCV replicon assay and cytotoxicity assay (WO 2007/027248).
A human hepatoma cell line (Huh-7) containing replicating HCV subgenomic genotype 1b replicon with a luciferase reporter gene (luc-ubi-neo) was used to evaluate anti-HCV activity of the compounds. In this assay, the level of luciferase signal correlates with the viral RNA replication directly. The HCV replicon-reporter cell line (NK/luc-ubi-neo) was cultured in DMEM medium supplemented with 10% fetal bovine serum and 0.5 mg/ml Geneticin (G418). Cells were maintained in a subconfluent state to ensure high levels of HCV replicon RNA synthesis.
To evaluate the antiviral activity of compounds, serial dilutions were prepared with concentrations ranging from 0.14 to 300 μM. Diluted compounds were transferred to a 96-well plate followed by the addition of replicon cells (6000 cells per well). Cells were incubated with the compounds for 48 h after which luciferase activity was measured. Reduction of luciferase signal reflected the decrease of HCV replicon RNA in the treated cells and used to determine the EC50 value (concentration which yielded a 50% reduction in luciferase activity).

[2] = Cytotoxicity assay (LTR-luc luciferase reporter); type: cell-based, human; settings: human; Huh-7 LTR-luc cells, luciferase activity; read-out: CC50 (concentration of drug inhibiting cellular growth by 50%)
Description: as §1, §2
(§3) II. Cytotoxicity Assay A Huh-7 cell line carrying a luciferase reporter gene (driven by a HIV LTR promoter) stably integrated into the chromosome was used to analyze the cytotoxic effect of the selected compounds. This cell line (LTR-luc) was maintained in DMEM medium with 10% FBS. Design of the cytotoxicity assay was similar to that of the HCV replicon assay. Reduction of luciferase activity in the treated cells correlated with the cytotoxic effect of the test compound and was used to calculate the CC50 value (concentration that inhibited cell growth by 50%).

[3] = test system: Huh-7 cell line (LTR-luc); assay: Cytotoxicity assay (LTR-luc luciferase reporter); type: cell-based, human; settings: in vitro
Description: as §1, §2, §3

Row | SMILES | EC50 [1] [µM] | CC50 [2] [µM] | anti-HCV activity (in words) [1] | cytotoxicity (in words) [3]
1 | COc1nc(N)nc2c1ncn2C1OC(CO)C[C@@]1(C)F (some centres unmarked) [Compound 11] | > 100 | > 100 | – | –
2 | COc1nc(N)nc2c1ncn2C1OC(COP(=O)(NCc2ccccc2)OCc2ccccc2C)C[C@@]1(C)F (some centres unmarked) [Compound 17] | < 1 | 52.2 | potent anti-HCV activity | without significant cytotoxicity
3 | COC(=O)[C@H](C)NP(=O)(OCC1C[C@@](C)(F)C(n2cnc3c(OC)nc(N)nc32)O1)Oc1ccccc1 (some centres unmarked) [Compound 18] | < 1 | > 100 | potent anti-HCV activity | without significant cytotoxicity
4 | COc1nc(N)nc2c1ncn2C1OC(CO[P@@](=O)(N[C@@H](C)C(=O)OC2CCCC2)Oc2ccccc2)C[C@@]1(C)F (some centres unmarked) [Compound 25] | 0.58 | > 100 | potent anti-HCV activity | without significant cytotoxicity
